Consider three molecules from patent US8703698B2, “Compositions and methods for treating atherosclerosis” (The University of Chicago, priority 2003, dated 2014).

For series [1], the system named is ApoE knockout mice. As to the kind of experiment: Regression of aortic lesions in ApoE knockout mice on atherogenic diet. Format: in vivo. Conditions: for aortic lesions, area stained with Oil Red O, versus high fat diet controls (FIGS. 7A and 7B): liposomes intravenously once every four days for two weeks, 6 mg/kg, after four weeks atherogenic diet; for color of livers versus untreated mice: preliminary examination, ApoE knockout mice on atherogenic diet. The source says: In regression experiments, ApoE knockout mice were placed on an atherogenic diet as described in Example 11 for four weeks, following which they were divided into two groups. One group continued on the diet for an additional two weeks. The other group continued on the diet for the same period but also received once every four days liposomes containing a peptide corresponding to amino acids 1-20 of murine SAA2.1 (SEQ ID NO:1; Group B of FIG. 7A and Group hf+p1 of FIG. 7B) or liposomes containing a peptide corresponding to amino acids 74-103 of murine SAA2.1 (SEQ ID NO:4; Group D of FIG. 7A and Group hf+p4 of FIG. 7B). The control group received high fat diet alone with no liposomes (Group A of FIG. 7A and Group high fat of FIG. 7B). An additional group was placed on a normal mouse chow diet (Group C of FIG. 7A and Group low fat of FIG. 7B). A further additional Group receiving liposomes containing a peptide corresponding to amino acids 1-20 of murine SAA2.1 (SEQ ID NO:1) and liposomes containing a peptide corresponding to amino acids 74-103 of murine SAA2.1 (SEQ ID NO:4) is depicted in FIG. 7B and is referred to as hf+p1+p4. FIG. 7B is inclusive of data present in FIG. 7A as well as data from a subsequent experiment performed under the same conditions. After the two weeks, the mice were killed and their aortas were dissected and stained with Oil Red O. Data of FIG. 7A depict the area stained with Oil Red O indicative of the actual lipid positive area as a percentage of the total aortic area viewed. Data of FIG. 7B depict the area stained with Oil Red O as a percentage relative to the high fat diet group (100%).
The efficacy of SAA2.1 peptides in regression of atherosclerosis was examined. The peptides tested included SEQ ID NO:1 and SEQ ID NO:4. The peptides were injected intravenously once every four (4) days during atherogenic induction for a period of 2 weeks (i.e. four doses at 6 mg/kg).
To determine if these peptides cause regression of atherosclerosis, the animals were placed on an atherogenic diet (Paigen's Atherogenic Rodent Diet: Purina 5015 with cocoa butter, cholesterol and cholic acid (CI3002, Research Diets, Inc.)) for […], following which they were divided into two groups of 5 animals each. One group continued on the diet for an additional two weeks. […]
To assess the effects of the peptides on aortic atherosclerosis, at the termination of the experiment, the aorta was removed from the animals and opened longitudinally. The endothelial surface was stained with Oil Red O and the area occupied by lipid was measured by image analysis. Furthermore, histological sections of aorta were prepared for microscopic analysis and total lipids were isolated to measure the quantity of cholesterol per wet weight of tissue. […]

The test system of another series is J774 macrophages. Briefly: [3H]cholesterol efflux from cholesterol-loaded J774 macrophages in tissue culture. Format: cell-based, mouse. The note with it: for cholesterol efflux compared to equimolar liposomes containing full length murine SAA2.1 protein (FIG. 10): cholesterol-laden J774 cells, equimolar concentrations; for cholesterol efflux as compared to controls (FIGS. 3A and 3B) / dose-response of cholesterol efflux (FIGS. 3A and 3B): liposomes; for cholesterol efflux as compared to controls (FIGS. 3A and 3B): peptide at 1 μM (alone printed 1 μl), cholesterol-laden murine macrophages; for dose-response of cholesterol efflux (FIGS. 3A and 3B): 0.05, 0.1, 0.5, 1.0, 2.5 and 5.0 μM; for total cellular [3H]cholesterol released into the medium: pre-incubated 4 hours with liposomes containing 0.5 μM peptide, then cultured in presence of HDL (50 μg/mL).

The test system of series [2] is ApoE knockout mice. Briefly: Prevention of aortic lesions in ApoE knockout mice on high fat diet. In kind it is in vivo. The note with it: liposomes intravenously once every four days, five doses at 6 mg/kg; 20 days high fat diet. The source says:
In prevention experiments, ApoE knockout mice were placed on a high fat diet and at the same time received once every four days liposomes containing a peptide corresponding to amino acids 1-20 of murine SAA2.1 (SEQ ID NO:1; Group 2 of FIG. 8A and Group hf+p1 of FIG. 8B), liposomes containing a peptide corresponding to amino acids 74-103 of murine SAA2.1 (SEQ ID NO:4; Group 4 of FIG. 8A and Group hf+p4 of FIG. 8B) or liposomes containing a peptide corresponding to amino acids 1-20 of murine SAA2.1 and a peptide corresponding to amino acids 74-103 of murine SAA2.1 (SEQ ID NO:1+SEQ ID NO:4; Group 5 of FIG. 8A and Group hf+p(1+4) of FIG. 8B). The control group received high fat diet alone with no liposomes (Group 1 of FIG. 8A and Group high fat of FIG. 8B). An additional group was placed on a normal mouse chow diet (Group 3 of FIG. 8A and Group low fat of FIG. 8B). […]
To assess the effects of the peptides on aortic atherosclerosis, at the termination of the experiment, the aorta was removed from the animals and opened longitudinally. The endothelial surface was stained with Oil Red O and the area occupied by lipid was measured by image analysis. Furthermore, histological sections of aorta were prepared for microscopic analysis and total lipids were isolated to measure the quantity of cholesterol per weight of tissue. […]

Series [3] deals with hepatic, macrophage, and pancreatic cholesterol esterase. The note with it: Lindhorst 1997; Ely 2001; Tam 2002; cited from earlier work.

Take “DTIADQEANRHGRSGKDPNYYRPPGLPDKY [SEQ ID NO:4, synthetic peptide, residues 74-103 of murine SAA2.1]”: in the series with ApoE knockout mice [1], the “aortic lesions, area stained with Oil Red O, versus high fat diet controls (FIGS. 7A and 7B)” value is “showed regression of aortic lesions”; the “color of livers versus untreated mice” value is “more normal reddish color”. In addition, in the series on J774 macrophages, the “cholesterol efflux compared to equimolar liposomes containing full length murine SAA2.1 protein (FIG. 10)” value was “statistically significant greater cholesterol efflux”; the “cholesterol efflux as compared to controls (FIGS. 3A and 3B)” value was “approximately 200%”; the “dose-response of cholesterol efflux (FIGS. 3A and 3B)” value was “increased with increasing amounts of each peptide alone”; the “total cellular [3H]cholesterol released into the medium” value worked out at 46.7 ± 3.1%. Also, in the series with J774 macrophages (pre-incubation with liposomes containing 0.5 μM peptide, HDL as acceptor), the “rate of [3H]cholesterol efflux into medium containing HDL” value is reported as “significant increase in the rate”. For the same molecule, the “aortic lesions, area stained with Oil Red O, versus control animals (FIGS. 8A and 8B)” value in the series with ApoE knockout mice [2] was “showed decreased aortic lesions”.

For “GFFSFVHEAFQGAGDMWRAY [SEQ ID NO:1, synthetic peptide, residues 1-20 of murine SAA2.1]”, in the series on ApoE knockout mice [1], the “aortic lesions, area stained with Oil Red O, versus high fat diet controls (FIGS. 7A and 7B)” value is listed as “showed regression of aortic lesions”; the “color of livers versus untreated mice” value was “more normal reddish color”. In the series with J774 macrophages, the “cholesterol efflux compared to equimolar liposomes containing full length murine SAA2.1 protein (FIG. 10)” value is on record as “statistically significant greater cholesterol efflux”; the “cholesterol efflux as compared to controls (FIGS. 3A and 3B)” value was “approximately 200%”; the “dose-response of cholesterol efflux (FIGS. 3A and 3B)” value was “increased with increasing amounts of each peptide alone”; the “total cellular [3H]cholesterol released into the medium” value stood at 60.6 ± 3.6%. In addition, the “aortic lesions, area stained with Oil Red O, versus control animals (FIGS. 8A and 8B)” value in the series on ApoE knockout mice [2] was “showed decreased aortic lesions”.

B1: GFFSFVHEAFQGAGDMWRAYTDMKEANWKNSDKYFHARGNYDAAQRGPGGVWAAEKISD GREAFQEFFGRGHEDTIADQEANRHGRSGKDPNYYRPPGLPDKY (protein, listed as Mus musculis)
chain: GFFSFVHEAFQGAGDMWRAYTDMKEANWKNSDKYFHARGNYDAAQRGPGGVWAAEKISDGREAFQEFFGRGHEDTIADQEANRHGRSGKDPNYYRPPGLPDKY
notes: full length murine serum amyloid A isoform 2.1 purified from acute phase plasma
For the molecule B1, the “cholesterol esterase activities in vitro” value in series [3] was “stimulate hepatic, macrophage, and pancreatic cholesterol esterase activities in vitro”.
